This assay deals with VEGFR2, unphosphorylated (Homo sapiens (Human), UniProt P35968). Briefly: VEGFR ADP GLO Assay. It is filed as biochemical. A general note: In ADP-Glo the light output rises with the ADP produced.
Sequence of VEGFR2, unphosphorylated (P35968 20-1356): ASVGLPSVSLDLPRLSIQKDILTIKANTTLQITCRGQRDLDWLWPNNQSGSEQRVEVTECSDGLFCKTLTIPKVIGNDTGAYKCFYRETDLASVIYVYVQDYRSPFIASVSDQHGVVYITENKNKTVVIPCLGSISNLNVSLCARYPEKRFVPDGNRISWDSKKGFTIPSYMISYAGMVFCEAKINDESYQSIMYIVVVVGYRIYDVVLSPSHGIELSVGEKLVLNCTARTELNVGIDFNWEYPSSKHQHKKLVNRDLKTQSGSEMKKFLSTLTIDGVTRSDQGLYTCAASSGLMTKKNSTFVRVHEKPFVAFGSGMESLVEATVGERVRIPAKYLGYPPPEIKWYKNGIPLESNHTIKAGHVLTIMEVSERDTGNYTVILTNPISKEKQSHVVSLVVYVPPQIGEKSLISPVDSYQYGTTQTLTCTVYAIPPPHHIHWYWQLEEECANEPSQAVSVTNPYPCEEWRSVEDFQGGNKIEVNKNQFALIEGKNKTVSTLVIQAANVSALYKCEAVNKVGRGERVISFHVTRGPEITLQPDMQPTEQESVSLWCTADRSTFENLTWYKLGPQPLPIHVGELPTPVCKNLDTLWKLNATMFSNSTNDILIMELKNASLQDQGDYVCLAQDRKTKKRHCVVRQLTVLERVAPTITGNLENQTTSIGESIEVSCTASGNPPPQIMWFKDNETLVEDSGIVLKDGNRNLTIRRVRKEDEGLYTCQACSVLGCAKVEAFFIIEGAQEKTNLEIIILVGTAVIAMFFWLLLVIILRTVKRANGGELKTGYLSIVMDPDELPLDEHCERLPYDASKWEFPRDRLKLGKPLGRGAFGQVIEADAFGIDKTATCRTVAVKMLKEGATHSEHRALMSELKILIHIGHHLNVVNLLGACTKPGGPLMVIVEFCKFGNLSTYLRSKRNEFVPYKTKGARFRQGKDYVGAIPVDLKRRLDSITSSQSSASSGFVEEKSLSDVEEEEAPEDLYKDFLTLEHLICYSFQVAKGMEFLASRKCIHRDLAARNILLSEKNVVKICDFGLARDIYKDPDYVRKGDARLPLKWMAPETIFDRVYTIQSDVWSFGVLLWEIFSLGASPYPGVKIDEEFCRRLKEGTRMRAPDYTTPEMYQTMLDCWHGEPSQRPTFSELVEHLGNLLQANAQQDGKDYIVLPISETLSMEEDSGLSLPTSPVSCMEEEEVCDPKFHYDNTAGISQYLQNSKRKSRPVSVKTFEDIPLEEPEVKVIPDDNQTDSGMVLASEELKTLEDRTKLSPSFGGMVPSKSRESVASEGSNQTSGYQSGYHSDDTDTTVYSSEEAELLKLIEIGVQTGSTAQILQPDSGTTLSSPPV
With `Cc1cc(C(=O)NCC(C)(C)N2CCCC2)sc1NC(=O)c1cnn2cc(-c3cnn(C)c3)sc12` [Example 202, 2-(1-methyl-1H-pyrazol-4-yl)-N-(3-methyl-5-((2-methyl-2-(pyrrolidin-1-yl)propyl)carbamoyl)thiophen-2-yl)pyrazolo[5,1-b]thiazole-7-carboxamide], the half-maximal inhibitory concentration (IC50) (in general, the concentration needed to halve the response being measured) is greater than 7.5 µM.

For `Cc1cc(C(=O)NCCN(C)C2CCOCC2)sc1NC(=O)c1cnn2cc(-c3cnn(C)c3)sc12` [Example 192, 2-(1-methyl-1H-pyrazol-4-yl)-N-(3-methyl-5-((2-(methyl(tetrahydro-2H-pyran-4-yl)amino)ethyl)carbamoyl)thiophen-2-yl)pyrazolo[5,1-b]thiazole-7-carboxamide], the IC50 was greater than 7.5 µM. In the case of `Cc1ncc(C(=O)NCCN2CC3CCC2C3)cc1NC(=O)c1cnn2cc(-c3cn(C)nc3C)sc12` (stereo not drawn) [Example 212, N-(5-((2-(2-azabicyclo[2.2.1]heptan-2-yl)ethyl)carbamoyl)-2-methylpyridin-3-yl)-2-(1,3-dimethyl-1H-pyrazol-4-yl)pyrazolo[5,1-b]thiazole-7-carboxamide] it was greater than 7.5 µM; in that of `Cc1cc(C(=O)NCCN2CCC(C)(C)CC2)sc1NC(=O)c1cnn2cc(-c3cnn(C)c3)sc12` [Example 183, N-(5-((2-(4,4-dimethylpiperidin-1-yl)ethyl)carbamoyl)-3-methylthiophen-2-yl)-2-(1-methyl-1H-pyrazol-4-yl)pyrazolo[5,1-b]thiazole-7-carboxamide], greater than 7.5 µM. The same measure for `Cc1ncc(NC(=O)OCC(C)(C)N2CCCC2)cc1NC(=O)c1cnn2cc(-c3cnn(C)c3)sc12` [Example 249, 2-methyl-2-(pyrrolidin-1-yl)propyl (6-methyl-5-(2-(1-methyl-1H-pyrazol-4-yl)pyrazolo[5,1-b]thiazole-7-carboxamido)pyridin-3-yl)carbamate]: greater than 7.5 µM.

Compound `Cc1ncc(C(=O)NCCN2CC3CCC2CC3)cc1NC(=O)c1cnn2cc(-c3cnn(C(F)F)c3)sc12` [Example 180, N-(5-((2-(2-azabicyclo[2.2.2]octan-2-yl)ethyl)carbamoyl)-2-methylpyridin-3-yl)-2-(1-(difluoromethyl)-1H-pyrazol-4-yl)pyrazolo[5,1-b]thiazole-7-carboxamide] came in with an IC50 greater than 7.5 µM. The same measure for `Cc1ncc(C(=O)NCCN2CCCC2(C)C)cc1NC(=O)c1cnn2cc(-c3cncc(S(C)(=O)=O)c3)sc12` [Example 230, N-(5-((2-(2,2-dimethylpyrrolidin-1-yl)ethyl)carbamoyl)-2-methylpyridin-3-yl)-2-(5-(methylsulfonyl)pyridin-3-yl)pyrazolo[5,1-b]thiazole-7-carboxamide]: greater than 2.5 µM. In the case of `Cc1ncc(C(=O)NCCN2CCCC23CCC3)cc1NC(=O)c1cnn2cc(-c3cn(C)nc3C)sc12` [Example 213, N-(5-((2-(5-azaspiro[3.4]octan-5-yl)ethyl)carbamoyl)-2-methylpyridin-3-yl)-2-(1,3-dimethyl-1H-pyrazol-4-yl)pyrazolo[5,1-b]thiazole-7-carboxamide] it was greater than 7.5 µM. In the case of `Cc1cc(C(=O)NCCN2CCOCC23CC3)sc1NC(=O)c1cnn2cc(-c3cnn(C)c3)sc12` [Example 197, N-(5-((2-(7-oxa-4-azaspiro[2.5]octan-4-yl)ethyl)carbamoyl)-3-methylthiophen-2-yl)-2-(1-methyl-1H-pyrazol-4-yl)pyrazolo[5,1-b]thiazole-7-carboxamide] it was greater than 7.5 µM; in that of `Cc1ncc(C(=O)NCCN2CCCC2(C)C)cc1NC(=O)c1cnn2cc(-c3cnn(CCC(O)CO)c3)sc12` (stereo not drawn) [Example 221, 2-(1-(3,4-Dihydroxybutyl)-1H-pyrazol-4-yl)-N-(5-((2-(2,2-dimethylpyrrolidin-1-yl)ethyl)carbamoyl)-2-methylpyridin-3-yl)pyrazolo[5,1-b]thiazole-7-carboxamide], greater than 7.5 µM; in that of `Cc1ncc(NC(=O)CCCN2CCC23CCC3)cc1NC(=O)c1cnn2cc(-c3cnn(C)c3)sc12` [Example 215, N-(5-(4-(1-azaspiro[3.3]heptan-1-yl)butanamido)-2-methylpyridin-3-yl)-2-(1-methyl-1H-pyrazol-4-yl)pyrazolo[5,1-b]thiazole-7-carboxamide], greater than 7.5 µM.

`Cc1cc(C(=O)NCCN2CCCC2(C)C)sc1NC(=O)c1cnn2cc(-c3ccn(C)n3)sc12` [Example 188, N-(5-((2-(2,2-dimethylpyrrolidin-1-yl)ethyl)carbamoyl)-3-methylthiophen-2-yl)-2-(1-methyl-1H-pyrazol-3-yl)pyrazolo[5,1-b]thiazole-7-carboxamide] came in with an IC50 greater than 7.5 µM.

Compound `Cc1ncc(C(=O)NCCN2CCCC23CCC3)cc1NC(=O)c1cnn2cc(-c3cnn(C)c3C)sc12` [Example 209, N-(5-((2-(5-azaspiro[3.4]octan-5-yl)ethyl)carbamoyl)-2-methyl-pyridin-3-yl)-2-(1,5-dimethyl-1H-pyrazol-4-yl)pyrazolo[5,1-b]thiazole-7-carboxamide] registered an IC50 greater than 7.5 µM. In the case of `Cc1cc(C(=O)NCCN2CC[C@@H](O)C2)sc1NC(=O)c1cnn2cc(-c3cnn(C)c3)sc12` [Example 194, (R)—N-(5-((2-(3-hydroxypyrrolidin-1-yl)ethyl)carbamoyl)-3-methylthiophen-2-yl)-2-(1-methyl-1H-pyrazol-4-yl)pyrazolo[5,1-b]thiazole-7-carboxamide] it was 2.04 µM; in that of `COCCn1cc(-c2cn3ncc(C(=O)Nc4cc(NC(=O)CCCN5CCC[C@@H]5C)cnc4C)c3s2)cn1` [Example 216, (S)-2-(1-(2-methoxyethyl)-1H-pyrazol-4-yl)-N-(2-methyl-5-(4-(2-methylpyrrolidin-1-yl)butanamido)pyridin-3-yl)pyrazolo[5,1-b]thiazole-7-carboxamide], greater than 7.5 µM. In the case of `Cc1ncc(NC(=O)CN2CCC3(COC3)C2)cc1NC(=O)c1cnn2cc(-c3cnn(C)c3)sc12` [Example 18, N-(5-(2-(2-oxa-6-azaspiro[3.4]octan-6-yl)acetamido)-2-methylpyridin-3-yl)-2-(1-methyl-1H-pyrazol-4-yl)pyrazolo[5,1-b]thiazole-7-carboxamide] it was greater than 7.5 µM; in that of `Cc1ncc(NC(=O)OCCN2CCCC2(C)C)cc1NC(=O)c1cnn2cc(-c3cnn(C)c3)sc12` [Example 247, 2-(2,2-dimethylpyrrolidin-1-yl)ethyl (6-methyl-5-(2-(1-methyl-1H-pyrazol-4-yl)pyrazolo[5,1-b]thiazole-7-carboxamido)pyridin-3-yl)carbamate], greater than 7.5 µM; in that of `Cc1ncc(C(=O)NCCN2CCCC2)cc1NC(=O)c1cnn2cc(-c3cnn(CCC(O)CO)c3)sc12` (stereo not drawn) [Example 222, 2-(1-(3,4-Dihydroxybutyl)-1H-pyrazol-4-yl)-N-(2-methyl-5-((2-(pyrrolidin-1-yl)ethyl)carbamoyl)pyridin-3-yl)pyrazolo[5,1-b]thiazole-7-carboxamide], greater than 7.5 µM.

As to `Cc1ncc(NC(=O)OCCN2CCCC2)cc1NC(=O)c1cnn2cc(-c3cnn(C)c3)sc12` [Example 246, 2-(pyrrolidin-1-yl)ethyl (6-methyl-5-(2-(1-methyl-1H-pyrazol-4-yl)pyrazolo[5,1-b]thiazole-7-carboxamido)pyridin-3-yl)carbamate], the IC50 was greater than 7.5 µM. In the case of `Cc1cc(C(=O)NCCCN2CCCC2(C)C)sc1NC(=O)c1cnn2cc(-c3cnn(C)c3)sc12` [Example 201, N-(5-((3-(2,2-dimethylpyrrolidin-1-yl)propyl)carbamoyl)-3-methylthiophen-2-yl)-2-(1-methyl-1H-pyrazol-4-yl)pyrazolo[5,1-b]thiazole-7-carboxamide] it was greater than 7.5 µM; in that of `Cc1ncc(NC(=O)OC[C@@H]2CCCN2C)cc1NC(=O)c1cnn2cc(-c3cnn(C)c3)sc12` [Example 243, (S)-(1-methylpyrrolidin-2-yl)methyl (6-methyl-5-(2-(1-methyl-1H-pyrazol-4-yl)pyrazolo[5,1-b]thiazole-7-carboxamido)pyridin-3-yl)carbamate], greater than 7.5 µM. For the compound `Cc1ncc(C(=O)NCCNCCO)cc1NC(=O)c1cnn2cc(-c3cnn(C)c3)sc12` [Example 234, N-(5-((2-((2-hydroxyethyl)amino)ethyl)carbamoyl)-2-methylpyridin-3-yl)-2-(1-methyl-1H-pyrazol-4-yl)pyrazolo[5,1-b]thiazole-7-carboxamide], the IC50 is greater than 7.5 µM.

`Cc1ncc(C(=O)NCCN2CCCC2)cc1NC(=O)c1cnn2cc(-c3c(C)nn(C)c3C)sc12` [Example 223, N-(2-methyl-5-((2-(pyrrolidin-1-yl)ethyl)carbamoyl)pyridin-3-yl)-2-(1,3,5-trimethyl-1H-pyrazol-4-yl)pyrazolo[5,1-b]thiazole-7-carboxamide]: the IC50 is greater than 0.833 µM. The same measure for `Cc1ncc(C(=O)NCCN2C[C@H]3CC[C@@H]2C3)cc1NC(=O)c1cnn2cc(-c3cn(C)nc3C)sc12` [Example 211, N-(5-((2-((1R,4S)-2-azabicyclo[2.2.1]heptan-2-yl)ethyl)carbamoyl)-2-methylpyridin-3-yl)-2-(1,3-dimethyl-1H-pyrazol-4-yl)pyrazolo[5,1-b]thiazole-7-carboxamide]: greater than 7.5 µM. The same measure for `Cc1cc(C(=O)NCCN2CCc3ccccc3C2)sc1NC(=O)c1cnn2cc(-c3cnn(C)c3)sc12` [Example 204, N-(5-((2-(3,4-dihydroisoquinolin-2 (1H)-yl)ethyl)carbamoyl)-3-methylthiophen-2-yl)-2-(1-methyl-1H-pyrazol-4-yl)pyrazolo[5,1-b]thiazole-7-carboxamide]: greater than 7.5 µM. The same measure for `Cc1cc(C(=O)NCCN2CCCC2(C)C)sc1NC(=O)c1cnn2cc(-c3ccc(N)nc3)sc12` [Example 184, 2-(6-aminopyridin-3-yl)-N-(5-((2-(2,2-dimethylpyrrolidin-1-yl)ethyl)carbamoyl)-3-methylthiophen-2-yl)pyrazolo[5,1-b]thiazole-7-carboxamide]: greater than 7.5 µM; for `Cc1cc(C(=O)NCCN2CC[C@H](O)C2)sc1NC(=O)c1cnn2cc(-c3cnn(C)c3)sc12` [Example 195, (S)—N-(5-((2-(3-hydroxypyrrolidin-1-yl)ethyl)carbamoyl)-3-methylthiophen-2-yl)-2-(1-methyl-1H-pyrazol-4-yl)pyrazolo[5,1-b]thiazole-7-carboxamide]: greater than 7.5 µM.

The values above are taken from patent US20240109917A1 (ACTELION PHARMACEUTICALS LTD, priority 2020, published 2024).
